Where two headings read alike, the source gives them in different places.

13 molecules from patent publication US7166622B2, “Substituted phenylsulfonamide inhibitors of beta amyloid production” (Wyeth, priority 2002, dated 2007) can be followed below.

For one data set, the system named is beta amyloid production. Put plainly: Repressor Release Assay (RRA). The note with it: for fold induction at 20 µg/mL: Conc 20 μg/ml; for fold induction at 20 µg/mL / fold induction at 10 µg/mL: read-out: APPI Fold Increase; for APPI Fold Increase / APPI % of Example #98 / fold induction at 10 µg/mL: Conc 10 μg/ml; for APPI % of Example #98: relative to Example 98. It is filed as cell-based. An outline of the steps:
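CHO-K1 cells transiently co-transfected with pRSVO-luc and an APP-lacI construct, replated, then treated in duplicate for 36-48 h at 37 °C, 5% CO2. Compounds diluted in 25 mM Hepes, with Hepes/1% DMSO as diluent control. Luciferase read-out in relative light units; toxicity scored 1 non-toxic, 0 toxic.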

Another data set concerns CHO-K1 cells. Put plainly: Toxicity in RRA (loss of luciferase signal). The following applies: toxicity = loss of signal (<0.75 fold increase).
Setting [1] is: luciferase activity over diluent control.
The mark [2] stands for this setting: luciferase activity (RLU) over diluent control.
Where [3] appears, read: Conc 20 μg/ml, 1=non-toxic, 0=toxic.

Procedure for CHO-K1 cells: The beta amyloid inhibitory activity of the compounds of the present invention was determined using the Repressor Release Assay (RRA).
“Fold Increase” refers to the amount of luciferase activity (measured in relative light units) over diluent control. “SEM” refers to the standard error of the mean for fold increase.

As for `O=S(=O)(NC1(CO)CCc2ccccc21)c1ccc(Cl)cc1` (stereo not shown) [Example 124, 4-chloro-N-[1-(hydroxymethyl)-2,3-dihydro-1H-inden-1-yl]benzenesulfonamide], the fold induction at 20 µg/mL with beta amyloid production (setting [1]) worked out at 2. Moreover, in the data set on CHO-K1 cells (Conc 20 μg/ml), the “(%)APPI Toxicity” value is 1 (1=non-toxic).

Consider “4-bromo-N-((1S,2 S)-1-{hydroxy-[4-(methylsulfanyl)phenyl]methyl}-2-methylbutyl) benzenesulfonamide [Example 163]”, for which the “APPI Fold Increase” value with beta amyloid production (setting [1]) is on record as 1.64 fold. For the same molecule, the “APPI % of Example #98” value in the data set on beta amyloid production was 69.41%. Also, the “(%)APPI Toxicity” value in the data set with CHO-K1 cells (Conc 10 μg/ml) is listed as 1 (1=non-toxic).

Regarding `CC[C@H](C)[C@H](NS(=O)(=O)c1ccc(F)cc1)C(O)c1ccc(SC)cc1` (stereo partly drawn) [Example 142, 4-fluoro-N-((1S,2 S)-1-{hydroxy[4-(methylsulfanyl)phenyl]methyl}-2-methylbutyl)benzenesulfonamide], the fold induction at 10 µg/mL in the data set on beta amyloid production (setting [1]) was 2.71. Also, in the data set on CHO-K1 cells (Conc 10 μg/ml), the “(%)APPI Toxicity” value is recorded as 1 (1=non-toxic).

Take `CC(C)[C@@](C)(CO)NS(=O)(=O)c1ccc(Cl)cc1` [Example 37, 4-chloro-N-[(1S)-1-(hydroxymethyl)-1,2-dimethylpropyl]benzenesulfonamide]: the fold induction at 20 µg/mL in the data set on beta amyloid production (setting [1]) was found to be 4.7. Moreover, the “(%)APPI Toxicity” value in the data set on CHO-K1 cells (Conc 20 μg/ml) is 1 (1=non-toxic).

With `CCCCC(O)[C@@H](NS(=O)(=O)c1ccc(F)cc1)[C@@H](C)CC` (stereo partly drawn) [Example 130, 4-fluoro-N-{(1S)-2-hydroxy-1-[(1S)-1-methylpropyl]hexyl}benzenesulfonamide], in the data set with beta amyloid production (setting [1]), the fold induction at 10 µg/mL worked out at 2.4. Moreover, in the data set on CHO-K1 cells (Conc 10 μg/ml), the “(%)APPI Toxicity” value was 1 (1=non-toxic).

As to `CCCCCC(O)[C@@H](NS(=O)(=O)c1ccc(Br)cc1)[C@@H](C)CC` (stereo partly drawn) [Example 147, 4-bromo-N-{(1S)-2-hydroxy-1-[(1S)-1-methylpropyl]heptyl}benzenesulfonamide], in the data set with beta amyloid production (setting [1]), the fold induction at 10 µg/mL turned out to be 1.94. The “(%)APPI Toxicity” value in the data set with CHO-K1 cells (Conc 10 μg/ml) is 1 (1=non-toxic).

In the case of `CCCCCC[C@@H](c1ccccc1)[C@@H](CO)NS(=O)(=O)c1ccc(Cl)cc1` [Example 65, 4-chloro-N-[(1S,2S)-1-(hydroxymethyl)-2-phenyloctyl]benzenesulfonamide], the fold induction at 20 µg/mL in the data set with beta amyloid production (setting [2]) was 1.9. In addition, the “(%)APPI Toxicity” value with CHO-K1 cells (setting [3]) is 1 (1=non-toxic).

Consider `CCCC(CO)NS(=O)(=O)c1ccc(Br)cc1` (stereo not shown) [Example 104, 4-bromo-N-[1-(hydroxymethyl)butyl]benzenesulfonamide], for which the fold induction at 20 µg/mL in the data set on beta amyloid production (setting [1]) worked out at 1.5. Besides, the “(%)APPI Toxicity” value in the data set with CHO-K1 cells (Conc 20 μg/ml) is listed as 1 (1=non-toxic).

As for `C=CC(O)[C@@H](NS(=O)(=O)c1ccc(Cl)cc1)[C@@H](C)CC` (stereo partly drawn) [Example 174, 4-chloro-N-{(1S)-2-hydroxy-1-[(1S)-1-methylpropyl]-3-butenyl}benzenesulfonamide], the fold induction at 10 µg/mL with beta amyloid production (setting [1]) was found to be 2.1. In addition, the “(%)APPI Toxicity” value in the data set with CHO-K1 cells (Conc 10 μg/ml) is 1 (1=non-toxic).

Regarding `CCCCCC[C@@H](CCC)[C@@H](CO)NS(=O)(=O)c1ccc(Br)cc1` [Example 79, 4-bromo-N-[(1S,2R)-1-(hydroxymethyl)-2-propyloctyl]benzenesulfonamide], the fold induction at 20 µg/mL in the data set on beta amyloid production (setting [2]) was 1.5. The “(%)APPI Toxicity” value in the data set with CHO-K1 cells (setting [3]) is 1 (1=non-toxic).

Take `C=CCC(O)(CC=C)[C@@H](NS(=O)(=O)c1ccc(Cl)cc1)[C@@H](C)CC` [Example 228, N-{(1S)-2-allyl-2-hydroxy-1-[(1S)-1-methylpropyl]-4-pentenyl}-4-chloro benzenesulfonamide]: in the data set with beta amyloid production (setting [1]), the “APPI Fold Increase” value came out at 1.56 fold. Moreover, in the data set with beta amyloid production, the “APPI % of Example #98” value was determined as 71.57%. In addition, in the data set on CHO-K1 cells (Conc 10 μg/ml), the “(%)APPI Toxicity” value is recorded as 1 (1=non-toxic).

For the molecule `CC[C@H](C)[C@H](NS(=O)(=O)c1ccccc1F)C(O)c1ccc(Cl)cc1` (stereo partly drawn) [Example 208, N-{(1S,2S)-1-[(4-chlorophenyl) (hydroxy)methyl]-2-methylbutyl}-2-fluorobenzenesulfonamide], in the data set with beta amyloid production (setting [1]), the fold induction at 10 µg/mL worked out at 2.01. Besides, the “(%)APPI Toxicity” value in the data set with CHO-K1 cells (Conc 10 μg/ml) is given as 1 (1=non-toxic).

For `CCCCC(O)[C@@H](NS(=O)(=O)c1ccc(Cl)cc1)[C@@H](C)CC` (stereo partly drawn) [Example 169, 4-chloro-N-{(1S)-2-hydroxy-1-[(1S)-1-methylpropyl]hexyl}benzenesulfonamide], in the data set on beta amyloid production (setting [1]), the fold induction at 10 µg/mL stood at 2.85. The “(%)APPI Toxicity” value in the data set with CHO-K1 cells (Conc 10 μg/ml) is given as 1 (1=non-toxic).
